Source: publication PMC7793531 (International Journal of Molecular Sciences, 2020)
Starred links: 1 amine or outer side, 2 acyl side, 3 side chain; linkers in the order of their positions; H or OH if unused. Non-standard residues stand in square brackets, D forms with d. Residues, ends and D or L forms follow the SMILES beside them. Groups on a side chain read outwards from the residue. ξ: configuration not given here. *: point of attachment. Oic(3aξ,7aξ) = O=C(O)[C@@H]1CC2CCCCC2N1; X1 = N=C(N)NCCCC[C@H](N)CN*; Dab = NCC[C@H](N)C(=O)O; CO = O=C([*:1])[*:2]

Columns and labels:
[1] = biological target: T1, VEGF-A165/NRP-2 complex (Homo sapiens, UniProt O60462); assay: Competitive ELISA-like assay, VEGF-A165/NRP-2 complex formation; format: binding; conditions: tested 0.1–10 µM
T1 construct: purchased R&D Systems
T1 sequence (O60462 23-864 limits assumed): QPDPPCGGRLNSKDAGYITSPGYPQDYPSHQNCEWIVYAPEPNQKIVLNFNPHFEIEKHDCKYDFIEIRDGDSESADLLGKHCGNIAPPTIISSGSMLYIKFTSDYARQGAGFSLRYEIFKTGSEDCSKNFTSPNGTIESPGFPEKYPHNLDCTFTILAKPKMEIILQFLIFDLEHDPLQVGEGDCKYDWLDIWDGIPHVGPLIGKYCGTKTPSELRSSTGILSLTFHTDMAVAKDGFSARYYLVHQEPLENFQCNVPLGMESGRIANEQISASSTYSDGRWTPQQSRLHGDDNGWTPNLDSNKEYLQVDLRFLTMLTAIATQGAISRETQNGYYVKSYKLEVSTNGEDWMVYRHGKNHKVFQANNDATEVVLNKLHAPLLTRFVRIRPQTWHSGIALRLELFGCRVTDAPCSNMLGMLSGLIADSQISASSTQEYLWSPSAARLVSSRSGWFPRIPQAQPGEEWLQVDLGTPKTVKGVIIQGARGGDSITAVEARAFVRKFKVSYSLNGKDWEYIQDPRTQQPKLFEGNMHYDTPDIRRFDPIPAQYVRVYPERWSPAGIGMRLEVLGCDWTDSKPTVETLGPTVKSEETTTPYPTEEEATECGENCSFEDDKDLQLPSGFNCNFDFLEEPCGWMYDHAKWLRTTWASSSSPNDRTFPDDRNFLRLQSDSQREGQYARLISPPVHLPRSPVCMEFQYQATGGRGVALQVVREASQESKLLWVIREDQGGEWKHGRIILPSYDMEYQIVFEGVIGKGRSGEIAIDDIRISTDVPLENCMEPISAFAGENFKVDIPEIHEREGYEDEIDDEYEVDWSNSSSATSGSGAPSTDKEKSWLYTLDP
Excerpt: (§1) Amino acid sequence homology for primary structures of NRP-1 and NRP-2 is 44% [81, 82]. Structural studies have shown that both receptors bind VEGF-A165 using a conserved binding pocket core, formed by the b1 subdomain loops. VEGF-A165 interacts also with VEGF-R1 and R2 receptors by different fragments encoded by exons 1–5 [84, 85]. Affinity studies were done using modified ELISA-like assay, performed in the same manner as affinity tests for NRP-1 after optimization of method for individual protein. […] However, this value is more than two times higher compared to VEGF-A165/NRP-1 complex inhibition.
(§2) This method was previously described for NRP-1 [44, 45, 46]. […] Next, 100 µL chemiluminescent substrate was added, and luminescence was quantified using Tecan Infinite F200Pro microplate reader (Männedorf, Switzerland). […] Percentages of inhibition were calculated by the following formula:100% − [[(S − N)/(P − N)]∙100%](1) where S is the signal intensity measured in wells with urea–peptide hybrid. The IC50 of each urea–peptide hybrid was calculated using the nonlinear regression function with GraphPad Prism Version-5.01 (GraphPad Software, San Diego, CA, USA). […]

[2] = biological target: T2, VEGF-A165/VEGF-R1 complex (Homo sapiens, UniProt P17948); assay: Competitive ELISA-like assay, VEGF-A165/VEGF-R1 complex formation; format: binding
T2 construct: purchased R&D Systems
Excerpt: as §1, §2

[3] = In vitro enzymatic stability in human blood serum (LC-SWATH-MS); format: in vitro ADME; conditions: human blood serum (pooled from four healthy persons), 37 °C, after 96 h, read-out: compound still intact
Method: Rapid renal clearance and enzymatic degradation are classified as most important disadvantages of peptides as drugs. Covalent linkage to plasma proteins or chemical modifications, including amide bond modifications, might improve their half-lives. We performed proteolytic stability studies in human blood serum to investigate whether the introduction of urea bonds affected the half-lives of compounds from each of synthesized group of hybrids. Compounds 3, 6 and 7 were incubated with human serum at 37 °C. Samples were taken at different time intervals and analyzed using LC-SWATH-MS [88, 89, 90]. […] Hybrids 6 and 7 were stable toward enzymatic degradation, with 50% of each compound still being intact after 96 h (Figure 5). […] Overall, it can be concluded that the substitution of an amide bond with a urea bond has a positive effect on the proteolytic stability of the examined inhibitors.
The study was conducted in full accordance with ethical principles in accordance with the ICH E6 (R2) Guideline for Good Clinical Practice and the Code of Good Customs in Science developed by the Polish Academy of Sciences. Signed consent for using serum was obtained from volunteers. The Rector’s Commission for Ethics of Scientific Research with Human Participation, University of Warsaw, Warsaw, Poland gave the ethical approval (approval number 51/2020). Human blood from four healthy persons was directly drawn into evacuated tubes and left undisturbed at room temperature for 1 h to clot. Tubes were centrifuged at 2500× g for 10 min to prevent possible platelet activation. Serum was pipetted out of the blood collection tubes, pooled and collected in microtubes.
A degradation assay was adapted from a method described previously. Human blood serum was preactivated in Eppendorf ThermoMixer® Comfort (Hamburg, Germany) at 37 °C for 20 min (350 rpm). Next, 20 μL of aqueous urea–peptide hybrid stock solution was added to give ∼750 μg/mL final compound concentration, and incubation was continued. At selected time intervals, 50 μL of the mixture was collected and quenched by adding 200 μL of ACN:H2O:FA mixture (89:10:1, v:v:v). The obtained suspension was vortexed for 1 min (3000 min^−1) and centrifuged for 10 min in 4 °C (11,000× g). 100 μL of supernatant was collected and lyophilized. The samples reconstituted in 1 mL of 10 mM ammonium formate with 0.1% FA were subjected to LC-MS. Relative concentration at time intervals was calculated using peak area of either individual or most intense fragment of compound of interest. Analyst software version 1.7.1 was used for data acquisition, Peak View 2.2 and MultiQuant 2.1 (Sciex, ON) were used for data processing. Detailed analytical data can be found in Supplementary Materials (Figures S17–S45). […]

T2 sequence (P17948 27-756 limits assumed, one chain of several): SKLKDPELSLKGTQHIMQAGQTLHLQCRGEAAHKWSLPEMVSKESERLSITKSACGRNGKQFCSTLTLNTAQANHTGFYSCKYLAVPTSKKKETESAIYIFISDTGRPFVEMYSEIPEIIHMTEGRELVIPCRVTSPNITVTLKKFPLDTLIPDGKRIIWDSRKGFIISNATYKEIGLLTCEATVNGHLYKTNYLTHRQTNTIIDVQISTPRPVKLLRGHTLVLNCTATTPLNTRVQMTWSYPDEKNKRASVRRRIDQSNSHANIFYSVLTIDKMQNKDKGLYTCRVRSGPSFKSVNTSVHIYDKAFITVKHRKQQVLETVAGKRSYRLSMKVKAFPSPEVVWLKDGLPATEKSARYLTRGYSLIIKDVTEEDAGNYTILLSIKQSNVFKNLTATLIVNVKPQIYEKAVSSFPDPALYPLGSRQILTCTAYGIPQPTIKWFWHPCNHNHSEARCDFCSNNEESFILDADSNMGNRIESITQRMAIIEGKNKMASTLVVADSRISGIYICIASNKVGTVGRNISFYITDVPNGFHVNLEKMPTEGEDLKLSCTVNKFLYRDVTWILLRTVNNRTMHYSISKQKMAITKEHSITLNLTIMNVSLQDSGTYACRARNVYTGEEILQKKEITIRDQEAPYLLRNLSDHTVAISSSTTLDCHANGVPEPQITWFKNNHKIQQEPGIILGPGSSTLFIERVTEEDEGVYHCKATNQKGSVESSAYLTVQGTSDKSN

Structure (SMILES): N=C(N)NCCCC[C@H](N)CNC(=O)NCC[C@H](N)C(=O)N[C@@H](CCN)C(=O)N1C2CCCCC2C[C@H]1C(=O)N[C@@H](CCCNC(=N)N)C(=O)O (stereo partly drawn) [Compound 6, H-Dab(hArg^U)Dab-Oic-Arg-OH] (H-[Dab]([CO-X1])[Dab][Oic(3aξ,7aξ)]R-OH)
- IC50 [1]: 480 nM
- IC50, VEGF-A165/VEGF-R1 complex formation [2]: no affinity
- remaining at 96 h [3]: 50%
